{"source": "patent US8501810B2", "about": "“Guanidino acetic acid used as an animal food additive” (AlzChem Trostberg GmbH, priority 2004, dated 2013)", "key": {"[1]": {"assay": "Feed for growing hens, additive in air-dried feed, 42 days' growing duration", "assay_type": "in vivo", "excerpt": "1.4 Feed for Growing Hens\nIn addition, with this feed additive, the feed consumption decreased by about 6% compared with previous feeding methods.\nIn addition, it was found in this experiment that even an addition of 0.032% by weight of guanidinoacetic acid (0.32 g/kg) to the air-dried feed increased the final weight by 3% for 42 days' growing duration. The feed consumption decreased by 3% compared with previous feeding methods."}, "[2]": {"assay": "Comparative example: creatine in the feed for growing hens, 41 days growing duration", "assay_type": "in vivo", "details": "0.2% (2 g/kg) in air-dried feed", "excerpt": "2. Comparative Example (According to EP 920 689)\nThe effect of the addition of creatine in the feed for growing hens was investigated.\nThe feed consumption decreased by about 2-3% compared with previous feeding methods."}, "[3]": {"details": "young rats, cited from earlier work"}, "[4]": {"assay": "Stability in acidic aqueous solution", "assay_type": "physicochemical", "excerpt": "Thus in contrast to creatine, the majority of the compounds administered or fed, guanidinoacetic acid and/or salts of guanidinoacetic acid, are not degraded by instability reactions, for example in the stomach, and excreted before resorption, but are in fact available in the corresponding physiological metabolic reactions."}, "[5]": {"details": "1.112% in base feed, also in combination with methionine; cited from earlier work"}, "Staphyllococcus aureus": {"tested_on": "Staphyllococcus aureus", "details": "cited from earlier work"}, "[6]": {"details": "control group, 0.04% by weight (0.4 g/kg) in air-dried feed"}, "[7]": {"details": "0.032% by weight (0.32 g/kg) in air-dried feed"}, "[8]": {"details": "0.092% by weight (0.92 g/kg) in air-dried feed"}}, "data": [{"smiles": "CN(CC(=O)O)C(=N)N.O", "note": "[creatine monohydrate, reference compound]", "values": [{"measurement": "decrease in feed consumption", "setting": "[1]; [6]", "value": "no decreased feed consumption"}, {"measurement": "increase in the final weight", "setting": "[1]; [6]", "value": "no increase in the final weight"}]}, {"smiles": "CN(CC(=O)O)C(=N)N", "note": "[creatine]", "values": [{"measurement": "decrease in feed consumption compared with previous feeding methods", "setting": "[2]", "value": "2-3%"}, {"measurement": "increase in the final weight compared with previous feeding methods", "setting": "[2]", "value": 4, "unit": "%"}, {"measurement": "meat quality", "setting": "[2]", "value": "improved quality"}, {"measurement": "nature of the increase in weight (lean-body mass index)", "setting": "[2]", "value": "only by meat gain, but not by fat gain"}]}, {"smiles": "N=C(N)NCC(=O)O", "note": "[guanidinoacetic acid]", "values": [{"measurement": "creatine content in the skeletal musculature and in the heart muscle", "setting": "[3]; additional administration of methionine", "value": "increased"}, {"measurement": "effect on the muscle creatine level", "setting": "[3]; in combination with folacin and vitamin B12", "value": "no effect"}, {"measurement": "effect on growth", "setting": "[3]", "value": "inhibitory activity"}, {"measurement": "stability in acidic aqueous solution in contrast to creatine and creatine monohydrate", "setting": "[4]", "value": "significantly higher stability"}, {"measurement": "decrease in feed consumption compared with previous feeding methods", "setting": "[1]; [7]", "value": 3, "unit": "%"}, {"measurement": "increase in the final weight", "setting": "[1]; [7]", "value": 3, "unit": "%"}, {"measurement": "decrease in feed consumption compared with previous feeding methods", "setting": "[1]; [8]", "value": "about 6%"}, {"measurement": "increase in the final weight compared with previous feeding methods", "setting": "[1]; [8]", "value": 7, "unit": "%"}, {"measurement": "meat quality", "setting": "[1]; [8]", "value": "improved quality"}, {"measurement": "nature of the increase in weight (lean-body mass index)", "setting": "[1]; [8]", "value": "solely by meat gain, but not by fat gain or water accumulation"}, {"measurement": "feed utilization", "setting": "[5]", "value": "significant decrease"}, {"measurement": "weight gain", "setting": "[5]", "value": "significant decrease"}, {"measurement": "use against bacterial infections in animal experiments", "setting": "Staphyllococcus aureus", "value": "successfully used"}]}]}
